Reference: PMC5614982, “Impact of Gastric H^+/K^+-ATPase rs2733743 on the Intragastric pH-Values of Dexlansoprazole Injection in Chinese Subjects” (Frontiers in Pharmacology, 2017)
Marks after values point to notes of the source that are not given here.

Test system: intragastric pH
Assay: 24-h intragastric pH monitoring after single intravenous dexlansoprazole in healthy Chinese subjects
Format: in vivo, human
Conditions: for AUCτ 1−τ 2pH−t: second AUC line
Protocol: Dexlansoprazole injection (30 mg per vial) used in the PK and PD study was manufactured by Nanjing Yoko Pharma Co., Ltd. (Nanjing, China). Subjects received an intravenous infusion of 20 or 30 mg dexlansoprazole injection in sterile saline solution (100 mL/h, 60 min). The study drug was administrated with an infusing pump (SA213, Lifepum, Beijing, China) and given through an intravenous catheter in the antecubital vein opposite to the one from which blood samples were taken.
An ambulatory pH recorder (Orion II, MMS, USA) with a disposable pH catheter (VersaFlex, MMS, USA) was used to monitor intragastric pH. The electrode was placed in water for at least 10 min and then calibrated using standard buffer solutions (pH 1.07 and 7.01) before intubation. Both calibration and intubation processes were conducted under the guidance of MMS Virtual Instructor Program. The catheter, trans nasally placed 10 cm under the lower esophageal sphincter, was identified by a sharp decrease in pH (Wang et al., [2010], [2011]). Subjects were intubated on baseline and the day of dosing at about 7:30 a.m., and the intragastric pH data were recorded continuously for 24 h from 8:00 a.m. Intragastric pH was sampled every second, and the data were stored in a MMS Database program (MMS, USA). The PD parameters including Median (pH), Mean (pH), TpH≥3 (%), TpH≥4 (%), TpH≥6 (%), TpH≥6, and AUC^pH−t were analyzed by the MMS Database program.
Median (pH) and mean (pH) were well-investigated in most studies, and the percentage time of pH ≥ 4 (or pH ≥ 4 holding time ratio) was the benchmark for predicting clinical efficacy of PPIs in treating acid-related diseases (Metz et al., [2009]). Novel parameter TpH≥6 (time to first gastric pH ≥ 6, min) and AUCτ 1-τ 2pH-t (area under pH-time curve from τ1 to τ2, pH·s) were defined to evaluate the velocity and extent of pharmacodynamics with more accuracy. All parameters were calculated and compared according to time periods of 0–24, 0–4, 4–10, 10–14, and 14–24 h post dosing.
The parameter AUCτ 1-τ 2pH-t was calculated as follows:
Where t represented the time duration measured by seconds, AUCτ 1-τ 210-t was the area between the pH line = 10 and the pH-time curve, which was generated by the MMS software.
Baseline-adjusted PD parameters were calculated as follows: for example, ΔAUC^pH−t = AUC^pH−t − AUC^pH−tbaseline, ΔMean (pH) = Mean (pH) − Mean (pH)^baseline, and ΔMedian (pH) = Median (pH) − Median (pH)^baseline.

[1] = 30 mg iv, H+/K+-ATPase Het (n = 10), 0–4 h
[2] = 30 mg iv, H+/K+-ATPase Het (n = 10), 0–24 h
[3] = 30 mg iv, H+/K+-ATPase Het (n = 10), 14–24 h
[4] = 30 mg iv, H+/K+-ATPase Hom (n = 10), 0–4 h
[5] = 30 mg iv, H+/K+-ATPase Hom (n = 10), 0–24 h
[6] = 30 mg iv, H+/K+-ATPase Hom (n = 10), 14–24 h
[7] = 30 mg iv, H+/K+-ATPase WT (n = 8), 0–4 h
[8] = 30 mg iv, H+/K+-ATPase WT (n = 8), 0–24 h
[9] = 30 mg iv, H+/K+-ATPase WT (n = 8), 14–24 h

Cc1c(OCC(F)(F)F)ccnc1C[S@@+]([O-])c1nc2ccccc2[nH]1 [dexlansoprazole]
ΔMedian (pH) [1]: 3.3 ± 2.0^c pH
ΔTpH≥3(%) [1]: 52.6 ± 22.2%
ΔTpH≥4 (%) [1]: 51.0 ± 20.6%
ΔTpH≥6(%) [1]: 46.0 ± 33.2%
Mean (pH) [2]: 5.9 ± 1.5 pH
Median (pH) [2]: 6.0 ± 1.9 pH
TpH≥3(%) [2]: 81.0 ± 20.9%
TpH≥4(%) [2]: 74.9 ± 25.7%
TpH≥6(%) [2]: 59.2 ± 25.9%
ΔMean (pH) [2]: 3.0 ± 1.0^c pH
ΔMedian (pH) [2]: 4.0 ± 1.6 pH
ΔTpH≥3(%) [2]: 51.8 ± 14.2^c %
ΔTpH≥4 (%) [2]: 54.9 ± 19.1^c %
ΔTpH≥6(%) [2]: 47.2 ± 17.0^c %
Mean (pH) [3]: 5.1 ± 1.9 pH
Median (pH) [3]: 4.9 ± 2.3 pH
TpH≥3(%) [3]: 72.0 ± 33.7%
TpH≥4(%) [3]: 63.2 ± 38.0%
TpH≥6(%) [3]: 41.0 ± 26.2%
ΔMean (pH) [3]: 1.9 ± 0.9^c pH
ΔMedian (pH) [3]: 2.1 ± 1.9^c pH
ΔTpH≥3(%) [3]: 44.1 ± 21.3^c %
ΔTpH≥4 (%) [3]: 37.7 ± 20.5^c %
ΔTpH≥6(%) [3]: 17.4 ± 11.2^c %
Mean (pH) [4]: 6.2 ± 0.8 pH
Median (pH) [4]: 7.5 ± 0.6 pH
TpH≥3(%) [4]: 78.0 ± 7.4%
TpH≥4(%) [4]: 73.1 ± 12.6%
TpH≥6(%) [4]: 70.3 ± 14.7%
ΔMean (pH) [4]: 4.2 ± 0.3^a pH
ΔMedian (pH) [4]: 5.8 ± 0.3^a^,^b pH
ΔTpH≥3(%) [4]: 68.4 ± 8.6%
ΔTpH≥4 (%) [4]: 67.5 ± 8.7%
ΔTpH≥6(%) [4]: 67.9 ± 12.4%
Mean (pH) [5]: 7.0 ± 0.6 pH
Median (pH) [5]: 7.5 ± 0.6 pH
TpH≥3(%) [5]: 95.7 ± 1.3%
TpH≥4(%) [5]: 91.7 ± 4.9%
TpH≥6(%) [5]: 80.2 ± 7.5%
ΔMean (pH) [5]: 4.5 ± 0.7^a^,^b pH
ΔMedian (pH) [5]: 5.5 ± 0.5^a pH
ΔTpH≥3(%) [5]: 75.4 ± 7.6^a^,^b %
ΔTpH≥4 (%) [5]: 79.9 ± 6.6^b %
ΔTpH≥6(%) [5]: 75.3 ± 9.3^a^,^b %
Mean (pH) [6]: 6.6 ± 0.8 pH
Median (pH) [6]: 6.7 ± 1.1 pH
TpH≥3(%) [6]: 98.5 ± 1.8%
TpH≥4(%) [6]: 91.0 ± 10.4%
TpH≥6(%) [6]: 66.9 ± 17.6%
ΔMean (pH) [6]: 4.0 ± 1.1^b pH
ΔMedian (pH) [6]: 4.7 ± 1.0^b pH
ΔTpH≥3(%) [6]: 84.0 ± 9.1^a^,^b %
ΔTpH≥4 (%) [6]: 80.9 ± 11.2^a^,^b %
ΔTpH≥6(%) [6]: 59.2 ± 21.4^a^,^b %
Mean (pH) [7]: 5.1 ± 1.4 pH
Median (pH) [7]: 5.6 ± 2.0 pH
TpH≥3(%) [7]: 69.5 ± 24.9%
TpH≥4(%) [7]: 63.3 ± 26.8%
TpH≥6(%) [7]: 46.8 ± 27.3%
ΔMean (pH) [7]: 2.9 ± 1.0^c pH
ΔMedian (pH) [7]: 3.5 ± 1.7^c pH
ΔTpH≥3(%) [7]: 54.0 ± 28.3%
ΔTpH≥4 (%) [7]: 53.6 ± 23.3%
ΔTpH≥6(%) [7]: 42.6 ± 23.6%
Mean (pH) [8]: 5.7 ± 0.9 pH
Median (pH) [8]: 6.0 ± 1.1 pH
TpH≥3(%) [8]: 81.1 ± 14.2%
TpH≥4(%) [8]: 75.6 ± 17.1%
TpH≥6(%) [8]: 57.1 ± 18.8%
ΔMean (pH) [8]: 3.0 ± 1.0^c pH
ΔMedian (pH) [8]: 3.7 ± 1.0^c pH
ΔTpH≥3(%) [8]: 52.6 ± 21.0^c %
ΔTpH≥4 (%) [8]: 57.3 ± 22.3%
ΔTpH≥6(%) [8]: 51.2 ± 17.1^c %
Mean (pH) [9]: 5.1 ± 1.3 pH
Median (pH) [9]: 4.7 ± 1.7 pH
TpH≥3(%) [9]: 70.7 ± 27.8%
TpH≥4(%) [9]: 62.5 ± 31.5%
TpH≥6(%) [9]: 43.7 ± 25.6%
ΔMean (pH) [9]: 2.6 ± 1.3 pH
ΔMedian (pH) [9]: 2.8 ± 1.7 pH
ΔTpH≥3(%) [9]: 56.6 ± 27.3^c %
ΔTpH≥4 (%) [9]: 50.7 ± 30.9^c %
ΔTpH≥6(%) [9]: 33.3 ± 25.5^c %
AUCτ 1−τ 2pH−t (20 mg iv, 0–4 h): 501 ± 268 pH·h
AUCτ 1−τ 2pH−t (20 mg iv, 10–14 h): 784 ± 346 pH·h
AUCτ 1−τ 2pH−t (20 mg iv, 14–24 h): 942 ± 632 pH·h
AUCτ 1−τ 2pH−t (30 mg iv, 0–4 h): 793 ± 268 pH·h
AUCτ 1−τ 2pH−t (30 mg iv, CYP2C19 EM (n = 11), 0–4 h): 762 ± 250 pH·h
AUCτ 1−τ 2pH−t (30 mg iv, CYP2C19 EMs, H+/K+-ATPase Het (n = 8), 0–4 h): 531 ± 194^c pH·h
AUCτ 1−τ 2pH−t (30 mg iv, CYP2C19 EMs, H+/K+-ATPase Het (n = 8), 14–24 h): 755 ± 198^c pH·h
AUCτ 1−τ 2pH−t (30 mg iv, CYP2C19 EMs, H+/K+-ATPase WT (n = 6), 0–4 h): 817 ± 157 pH·h
AUCτ 1−τ 2pH−t (30 mg iv, CYP2C19 EMs, H+/K+-ATPase WT (n = 6), 14–24 h): 968 ± 553^c pH·h
AUCτ 1−τ 2pH−t (30 mg iv, CYP2C19 IM (n = 10), 0–4 h): 789 ± 405 pH·h
AUCτ 1−τ 2pH−t (30 mg iv, CYP2C19 PM (n = 7), 0–4 h): 837 ± 235 pH·h
AUCτ 1−τ 2pH−t [1]: 727 ± 297 pH·h
AUCτ 1−τ 2pH−t [7]: 681 ± 248^c pH·h
